Assay results from patent US9796700B2 (Celgene CAR LLC, priority 2013, dated 2017).
pIC50: −log10 of the molar value.

Tests used:
MEK1 activated ERK1 = MEK1 activated ERK1 (Homo sapiens (Human), UniProt P27361); assay: Omnia continuous-read kinase assay for potency against MEK1 activated ERK1; format: biochemical; details: MEK1 activated ERK1, WT, ATP at KM
In short: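 Apparent IC50 came from initial reaction slopes (RFU vs time) plotted against log inhibitor with a variable-slope fit. Reactions were started with ERK1 (4 nM final) added to 50 μM ATP, roughly at its appKM, and 10 μM Sox-conjugated ST17 peptide in 20 mM Tris pH 7.5, 5 mM MgCl2. Fluorescence was monitored every 71 seconds.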

Erk1 [1] = target: T1, Erk1 (Homo sapiens (Human), UniProt P27361); assay: Protein Mass Modification Assay (intact protein MALDI); format: binding
In short: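 Percent covalent modification comes from the intact-protein MALDI centroid mass shift, treated versus control, divided by compound MW. Before analysis, human Erk1 was exposed to compound at 10-fold excess over protein for 60 min at room temperature.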
Target sequence in this assay (P27361 whole entry, looked up): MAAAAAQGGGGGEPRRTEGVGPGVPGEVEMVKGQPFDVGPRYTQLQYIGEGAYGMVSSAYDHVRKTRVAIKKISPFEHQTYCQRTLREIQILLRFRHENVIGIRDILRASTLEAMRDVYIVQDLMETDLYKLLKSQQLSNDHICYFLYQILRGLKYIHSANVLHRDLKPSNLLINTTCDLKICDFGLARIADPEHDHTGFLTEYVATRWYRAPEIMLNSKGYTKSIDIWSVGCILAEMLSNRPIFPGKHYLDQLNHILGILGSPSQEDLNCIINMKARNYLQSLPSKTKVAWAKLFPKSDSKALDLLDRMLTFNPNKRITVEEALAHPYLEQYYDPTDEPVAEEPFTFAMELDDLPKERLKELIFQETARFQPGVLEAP

[2] = test system: p-RSK (ERK activity) in cells after compound washout; assay: Measurement of duration of action of test compounds (pRSK after washout); format: cell-based; details: 6 hr after compound washout
Procedure: The protocol below describes an assay to measure the kinase activity of ERK1 to phosphorylate its substrate, RSK, in the presence of a test compound. This experiment was conducted using a Mesoscale Discovery plate. The day before the assay, HT29 cells were split and plated at 50,000 cells/well in complete growth media. After allowing cells to adhere, the media was removed and replaced with media containing 0.1% FBS and incubated overnight. Blank MDS plates were coated with 25 μl/well RSK capture antibody and incubated at 4° C. overnight. The next day, the media was removed and replaced with 100 μl of media containing a test compound and incubated for 120 minutes at 37° C. The media was removed and replaced with 55 μl of well lysis buffer with protease and phosphatase inhibitors provided in the kit, followed by incubation at 4° C. for 30 minutes. 50 μl of lysate was transferred to a blocked MSD plate, followed by incubation at room temperature for 2 hours under constant shaking. The plate was washed 3 times with MSD wash buffer (cat#R617TX), and 25 μl/well phospho-RSK (pRSK) detection antibody was added with an appropriate Sulfo-tagged anti-species detection antibody diluted in 1% BSA in MSD wash buffer. This mixture was incubated for 1 hour at room temperature under constant shaking. The plate was washed 3 times, and 150 μl 1×MSD read buffer was added, followed by signal detection in an MSD plate reader.
Measurement of Duration of Action of Test Compounds
One day before the assay, the cells were split and added at 50,000 cells per well in flat-bottom 96 well plate in 200 μl of growth media. The next day, the medium was discarded, 100 μl medium containing test compounds was added, and the plate was incubated at 37° C. for 120 minutes. The medium was discarded, and the cells were rinsed 3 times with PBS followed by addition of 200 μl of fresh grow medium. The plate was returned to a 37° C. incubator, and separate cell lysates were made using MSD lysis buffer after 0.25, 0.5, 1, 2, 4, 6, 8 and 18 or 24 hours. Thereafter, pRSK was measured as described above in the section entitled pRSK MSD Assay. The data is presented in Table A under the column titled “p-RSK inhibition at 6 hr (%).”

Erk1 [3] = target: T1, Erk1; assay: Measurement of Erk occupancy with biotinylated covalent probe I-299; format: cell-based; details: HT-29 cells
Procedure: Measurement of Erk Occupancy with Biotinylated Covalent Probe
This experiment measured occupancy of the ERK1 target by compounds according to the invention. This experiment was conducted using the Mesoscale Discovery test kit (Cat. #N45107B). One day before the assay, cells were split and added at 50,000 cells per well to a flat-bottom 96 well plate in 200 μl of growth medium. The next day, the medium was discarded, 100 μl medium containing test compound was added, and the plate was incubated at 37° C. for 120 minutes. The plate was rinsed once with PBS, and 50 μl lysis buffer with test compound was added. The plate was incubated at 4° C. for 30 min, and 30 μl of lysate was transferred to a plate to capture total and phosphor-Erk. Biotinylated probe I-299 was diluted in lysis buffer and added to each well to a final concentration of 0.2 μM. The plate was incubated for 2 hr under constant shaking at room temperature. The plate was washed 3 times with MSD wash buffer. To detect the biotinylated probe bonding, tagged streptavidin was added (MSD, Cat#R32AD-1) at 1 μg/ml, 25 μl/well, followed by a 60 min incubation under shaking. The plate was washed 3 times, 150 μl MSD Read Buffer (Cat#R61TX) was added and the plate was read in a plate reader manufactured by MSD. Percent occupancy by test compound at Erk was calculated by comparing the chemiluminescence readings from treated cells as compared to the chemiluminescence readings in untreated controls (which are defined as 100% probe bonding or 0% occupancy). The amount of covalent probe signal divided by the amount of ERK signal for samples with no test compound treatment represents the maximum probe signal (MPS). In samples treated with test compound prior to covalent probe, the ratio of probe signal to ERK signal (the test probe signal, TPS) was reduced by the degree of target occupancy by the test compound which blocks covalent probe binding. The difference between the MPS and the TPS, divided by the MPS gave the target occupancy by the test compound. This ratio was then expressed as a percent occupancy. Results from this assay are provided in Table A below under the column “Occupancy EC50 (nM) HT-29.”
Target sequence in this assay (P27361 2-379 limits assumed): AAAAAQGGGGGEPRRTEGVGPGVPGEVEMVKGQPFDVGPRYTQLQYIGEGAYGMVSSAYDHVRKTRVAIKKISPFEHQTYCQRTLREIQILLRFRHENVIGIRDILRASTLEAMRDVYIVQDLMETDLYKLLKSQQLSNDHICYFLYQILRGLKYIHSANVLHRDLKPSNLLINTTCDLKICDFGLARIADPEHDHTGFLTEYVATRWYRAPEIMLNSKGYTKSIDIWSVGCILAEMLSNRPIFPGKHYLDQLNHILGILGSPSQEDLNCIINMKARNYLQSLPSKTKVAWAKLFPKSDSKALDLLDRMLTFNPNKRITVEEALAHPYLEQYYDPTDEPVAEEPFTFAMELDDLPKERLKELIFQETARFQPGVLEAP

Chain of MEK1 activated ERK1 (P27361 whole entry): as the sequence (P27361 whole entry, looked up) above

pIC50 (MEK1 activated ERK1): > 7.00
ERK1 Mass Mod (%) (Erk1 [1]): E (provided a mass modification of ≧70%)
EC50 (Erk1 [3]): < 100 nM
Structure (SMILES): C=CC(=O)Nc1ccccc1Nc1nc(Nc2cc(C(N)=O)ccc2C)ncc1C(F)(F)F [Compound I-68, 3-(4-(2-Acrylamidophenylamino)-5-(trifluoromethyl)pyrimidin-2-ylamino)-4-methylbenzamide]
p-RSK inhibition at 6 hr (%) [2]: E (provided a p-RSK inhibition percent of ≧70%)
